This note sets out measurements from ChEMBL document CHEMBL1142078, “Detection of a new SHV-type extended-spectrum beta-lactamase, SHV-31, in a Klebsiella pneumoniae strain causing a large nosocomial outbreak in The Netherlands” (2007).

≈ marks a conversion by molar mass, not a printed value.

Holding throughout (assay type): functional
The test system of one test is Klebsiella pneumoniae. The test can be described thus: Antimicrobial activity against Klebsiella pneumoniae KPN15-NL.
The subject of test [1] is Escherichia coli. The test can be described thus: Antimicrobial activity against Escherichia coli XL10/pSHV-31.
Test [2] concerns Escherichia coli. The test can be described thus: Antimicrobial activity against Escherichia coli XL10/vector.

As to `C[C@@H](O)[C@H]1C(=O)N2C(C(=O)O)=C(S[C@@H]3CN[C@H](C(=O)Nc4cccc(C(=O)O)c4)C3)[C@H](C)[C@H]12` [ERTAPENEM], the MIC against Klebsiella pneumoniae and with Escherichia coli [1] was ≤ 0.06 mg/L throughout.

`CC(C)(O/N=C(\C(=O)N[C@@H]1C(=O)N2C(C(=O)[O-])=C(C[n+]3ccccc3)CS[C@H]12)c1csc(N)n1)C(=O)O` [CEFTAZIDIME]: the MIC is 0.12 mg/L (≈ 0.22 µM) with Escherichia coli [2], 128 mg/L (≈ 234 µM) in the test on Klebsiella pneumoniae and 32 mg/L (≈ 58.5 µM) in the test with Escherichia coli [1].

On to `C[C@@H](O)[C@H]1C(=O)N2C(C(=O)O)=C(SCCNC=N)C[C@H]12` [IMIPENEM ANHYDROUS], for which the MIC with Klebsiella pneumoniae and against Escherichia coli [1] was ≤ 0.06 mg/L each time.

`CO/N=C(\C(=O)N[C@@H]1C(=O)N2C(C(=O)O)=C(COC(C)=O)CS[C@H]12)c1csc(N)n1` [CEFOTAXIME]: the minimal inhibitory concentration (MIC) with Escherichia coli [2] is ≤ 0.06 mg/L; in the test with Klebsiella pneumoniae it was 8 mg/L (≈ 17.6 µM); against Escherichia coli [1], 4 mg/L (≈ 8.78 µM).

For the compound `CC1(C)S[C@@H]2[C@H](NC(=O)[C@H](N)c3ccc(O)cc3)C(=O)N2[C@H]1C(=O)O` [AMOXICILLIN], the minimal inhibitory concentration (MIC) in the test on Escherichia coli [2] is 16 mg/L (≈ 43.8 µM); against Klebsiella pneumoniae it was > 128 mg/L; with Escherichia coli [1], > 128 mg/L.

`C[C@H]1[C@H](NC(=O)/C(=N\OC(C)(C)C(=O)O)c2csc(N)n2)C(=O)N1S(=O)(=O)O` [AZTREONAM]: the MIC is 0.12 mg/L (≈ 0.276 µM) in the test on Escherichia coli [2], > 128 mg/L against Klebsiella pneumoniae and > 128 mg/L against Escherichia coli [1].

On to `CC1(C)S[C@@H]2[C@H](NC(=O)[C@H](N)c3ccccc3)C(=O)N2[C@H]1C(=O)O` [AMPICILLIN], for which the MIC in the test with Klebsiella pneumoniae and in the test on Escherichia coli [1] was > 128 mg/L in each case.

As to `CCN1CCN(C(=O)N[C@@H](C(=O)N[C@@H]2C(=O)N3[C@@H]2SC(C)(C)[C@@H]3C(=O)O)c2ccccc2)C(=O)C1=O` [PIPERACILLIN], the values for the MIC in the test on Escherichia coli [2], in the test with Klebsiella pneumoniae and with Escherichia coli [1] were 1 mg/L (≈ 1.93 µM), > 128 mg/L and 64 mg/L (≈ 124 µM), respectively.

For the compound `CO[C@@]1(NC(=O)Cc2cccs2)C(=O)N2C(C(=O)O)=C(COC(N)=O)CS[C@@H]21` [CEFOXITIN], the minimum inhibitory concentration (MIC) against Escherichia coli [2] was 1 mg/L (≈ 2.34 µM); with Klebsiella pneumoniae, 16 mg/L (≈ 37.4 µM); in the test on Escherichia coli [1] it was 1 mg/L (≈ 2.34 µM).

With `CO/N=C(\C(=O)N[C@@H]1C(=O)N2C(C(=O)[O-])=C(C[N+]3(C)CCCC3)CS[C@H]12)c1csc(N)n1` [CEFEPIME], the MIC with Escherichia coli [2] was ≤ 0.06 mg/L; against Klebsiella pneumoniae it was 1 mg/L (≈ 2.08 µM); in the test with Escherichia coli [1] it was 0.5 mg/L (≈ 1.04 µM).

The term MIC denotes the smallest concentration in the dilution series that meets the test's criterion for growth inhibition. A high value points to weaker potency.
